One experiment deals with T1, CXCR1 (Homo sapiens, UniProt P25024).
T1 sequence (P25024 1-350): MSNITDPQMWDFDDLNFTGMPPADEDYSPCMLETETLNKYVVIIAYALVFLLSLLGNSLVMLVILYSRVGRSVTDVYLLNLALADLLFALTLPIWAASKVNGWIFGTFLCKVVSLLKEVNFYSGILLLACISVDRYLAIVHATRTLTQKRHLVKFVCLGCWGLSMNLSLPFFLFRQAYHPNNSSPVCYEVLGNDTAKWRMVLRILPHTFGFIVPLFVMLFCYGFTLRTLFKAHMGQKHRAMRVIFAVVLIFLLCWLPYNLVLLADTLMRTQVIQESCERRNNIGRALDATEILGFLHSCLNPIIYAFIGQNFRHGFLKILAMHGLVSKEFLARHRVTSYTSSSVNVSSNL
Kind of experiment: Ki calculated from IC50 by the Cheng-Prusoff equation. Type of experiment: binding. The following applies: read-out: KiCXCR1 (nmol/L).

In the next experiment the target is T2, CXCR2 (Homo sapiens, UniProt P25025).
T2 sequence (P25025 1-360): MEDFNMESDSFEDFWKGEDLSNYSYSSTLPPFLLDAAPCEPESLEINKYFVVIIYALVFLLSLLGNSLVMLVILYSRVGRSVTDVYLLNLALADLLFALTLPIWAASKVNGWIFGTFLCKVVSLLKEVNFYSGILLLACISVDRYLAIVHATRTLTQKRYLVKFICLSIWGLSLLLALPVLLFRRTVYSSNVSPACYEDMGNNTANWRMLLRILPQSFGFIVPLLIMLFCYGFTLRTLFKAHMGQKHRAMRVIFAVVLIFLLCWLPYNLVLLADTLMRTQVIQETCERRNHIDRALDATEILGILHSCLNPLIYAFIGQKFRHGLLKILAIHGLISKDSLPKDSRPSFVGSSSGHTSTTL
Described as above. As to conditions: read-out: KiCXCR2 (nmol/L). Type of experiment: binding.

As for SCH-479833, the Ki on CXCR1 is 7 nmol/L; at CXCR2 it was 0.17 nmol/L.

The values above are taken from PMC4232212 (Clinical cancer research : an official journal of the …, 2009).
